Test results taken from patent US20240124465A1, “MOLECULES AND METHODS RELATED TO TREATMENT OF DISORDERS ASSOCIATED WITH JAK-2 SIGNALING DYSFUNCTION” (ST. JUDE CHILDREN'S RESEARCH HOSPITAL, priority 2020, published 2024).

Experiments:
Assay type in all cases: cell-based
JAK2 = experiment: Western blot assay, JAK2 protein degradation; conditions: MHH-CALL-4 cells, vehicle control = 100%
Method: (§1) Western blot assay: MHH-CALL-4 Cells were washed twice with ice-cold PBS and lysed in RIPA lysis buffer (Sigma) freshly supplemented with Halt™ Protease Inhibitor Cocktail (ThermoFisher) for 15 minutes on ice. The cell pellet was removed by centrifugation at 13,000 g at 4° C. for 15 minutes. Protein concentration was measured by BCA assay (Thermo Fisher Scientific). Proteins were denatured in NuPAGE LDS 4× sample buffer supplemented with reducing agents (Invitrogen). Typically, 10-20 μg of total protein was loaded per lane on a 4%-12% NUPAGE Bis-Tris gradient gel (Invitrogen) and analyzed by standard immunoblotting and imaged using Li—COR Odyssey CLx (LI-COR Biotechnology, Lincoln, NE). To access the protein degradation, the signal of target protein was normalized by the signal of ACBT and the signal of vehicle control was set as 100%. Primary antibodies used were: JAK1 (Cell Signaling #3332S), JAK2 (#3230S), JAK3 (#8827S), TYK2 (#9312S), GSPT1 (#14980S), CRBN (#71810S), IKZF1 (Santa Cruz Biotechnology, SC-398265) and ACBT (Santa Cruz Biotechnology, SC-47778).

MHH-CALL-4 cells = experiment: Cytotoxicity assay (resazurin, 72 hours); parameters: AUC: unit not given beside the values; conditions: for EC50: MHHCALL4, resazurin; for AUC: area under the dose-response curve
Method: Cytotoxicity assay: MHH-CALL-4 cells were maintained in RPMI1640 medium (Invitrogen) supplemented with 10% FBS (Hyclone), Penicillin/Streptomycin (100 units/mL) and Glutamine (100 μM). 2×10^5 cells were seeded in 100 μl medium/well in 96 well assay plates (Corning 3603). Assays were performed in triplicate; compounds to be screened were added to assay plates from DMSO stock solutions by pin transfer using 50SS pins (V&P Scientific). The assay plates incubated at 37° C. in 5% CO2 for 72 hours. Cells were then incubated for four hours with resazurin (Sigma) solution and read on a Synergy HT plate reader (Biotek, Winooski, VT). High-throughput assay data was analyzed using our in-house Robust Interpretation of Screening Experiments (RISE) application written in Pipeline Pilot (Biovia, v. 17.2.0) and the R program (R Core Team, 2013). All the AUC (area under the dose-response curve) per compound calculated from its dose response curve by RISE protocol. Selected data were plotted and analyzed by GraphPad Prism software v7 using non-linear regression curve fitting.

GSPT1 = biological target: T1, GSPT1 (Homo sapiens, UniProt P15170); experiment: Western blot assay, GSPT1 neosubstrate degradation; conditions: MHH-CALL-4 cells, vehicle control = 100%; for remaining activity at 0.1 µM: MHHCALL4, 100 nM, 24 h
T1 construct: endogenous in cells; host or cells: MHH-CALL-4
T1 sequence (P15170 whole entry): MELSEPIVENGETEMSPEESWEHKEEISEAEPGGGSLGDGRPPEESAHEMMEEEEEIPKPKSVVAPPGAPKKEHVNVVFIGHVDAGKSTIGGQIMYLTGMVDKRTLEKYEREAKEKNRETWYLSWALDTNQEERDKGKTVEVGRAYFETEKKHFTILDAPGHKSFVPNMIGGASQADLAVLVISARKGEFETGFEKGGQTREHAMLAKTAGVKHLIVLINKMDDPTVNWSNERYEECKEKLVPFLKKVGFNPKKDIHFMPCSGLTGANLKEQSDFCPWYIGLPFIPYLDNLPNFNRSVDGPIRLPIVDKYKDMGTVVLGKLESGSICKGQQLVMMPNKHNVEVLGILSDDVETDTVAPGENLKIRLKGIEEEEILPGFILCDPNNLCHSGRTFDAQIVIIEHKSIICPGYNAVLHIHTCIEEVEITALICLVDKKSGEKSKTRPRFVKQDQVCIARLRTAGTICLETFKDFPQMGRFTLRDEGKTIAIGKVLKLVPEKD
Method: as §1

JAK3 = biological target: T2, JAK3 (Homo sapiens, UniProt P52333); experiment: Western blot assay, JAK3 protein degradation; conditions: MHHCALL4; 100 nM, 24 h; MHH-CALL-4 cells; vehicle control = 100%; read-out: Target Protein Degradation (% remaining at 100 nM, 24 h) JAK3
T2 construct: endogenous in cells; host or cells: MHH-CALL-4
T2 sequence (P52333 1-1124): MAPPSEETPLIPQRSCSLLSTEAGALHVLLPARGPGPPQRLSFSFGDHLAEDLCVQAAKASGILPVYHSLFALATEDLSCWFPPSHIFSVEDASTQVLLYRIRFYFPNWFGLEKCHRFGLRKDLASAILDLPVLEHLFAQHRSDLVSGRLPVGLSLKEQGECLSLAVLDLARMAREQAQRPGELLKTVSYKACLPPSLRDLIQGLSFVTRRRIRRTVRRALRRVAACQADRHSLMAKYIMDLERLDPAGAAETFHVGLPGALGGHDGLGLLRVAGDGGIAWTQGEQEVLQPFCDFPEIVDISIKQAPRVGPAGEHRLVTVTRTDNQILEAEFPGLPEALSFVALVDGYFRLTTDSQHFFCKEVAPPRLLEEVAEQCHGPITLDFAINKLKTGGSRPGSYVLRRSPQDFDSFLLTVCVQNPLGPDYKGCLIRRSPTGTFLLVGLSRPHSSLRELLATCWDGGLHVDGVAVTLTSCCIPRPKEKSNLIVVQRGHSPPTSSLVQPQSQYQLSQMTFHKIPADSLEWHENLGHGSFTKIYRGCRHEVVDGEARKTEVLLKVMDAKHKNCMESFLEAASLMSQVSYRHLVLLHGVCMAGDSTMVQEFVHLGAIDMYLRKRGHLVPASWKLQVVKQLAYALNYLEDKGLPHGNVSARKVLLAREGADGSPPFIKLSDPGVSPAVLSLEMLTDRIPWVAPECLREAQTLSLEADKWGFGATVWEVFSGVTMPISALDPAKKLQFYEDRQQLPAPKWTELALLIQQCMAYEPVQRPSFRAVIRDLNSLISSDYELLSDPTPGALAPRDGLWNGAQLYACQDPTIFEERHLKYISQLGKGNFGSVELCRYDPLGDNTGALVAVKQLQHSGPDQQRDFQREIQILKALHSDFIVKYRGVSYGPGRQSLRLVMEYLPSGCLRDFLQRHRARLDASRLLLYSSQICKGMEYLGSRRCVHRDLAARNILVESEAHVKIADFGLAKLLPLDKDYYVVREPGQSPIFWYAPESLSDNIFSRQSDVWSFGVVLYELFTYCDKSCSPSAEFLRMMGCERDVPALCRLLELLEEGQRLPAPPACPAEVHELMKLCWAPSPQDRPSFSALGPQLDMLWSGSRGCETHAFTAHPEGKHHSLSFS
Method: as §1

Row | SMILES | remaining activity at 0.1 µM (GSPT1) | Neosubstrate Degradation (% remaining at 100 nM, 24 h) GSPT1 (GSPT1) | remaining activity at 0.1 µM (JAK3) | Target Protein Degradation (% remaining at 100 nM, 24 h) JAK2 (JAK2) | EC50 (MHH-CALL-4 cells) | AUC (MHH-CALL-4 cells)
1 | CCS(=O)(=O)N1CC(CC#N)(n2cc(-c3nc(Nc4ccc(C(=O)N5CCN(c6ccc(C7CCC(=O)NC7=O)cc6)CC5)cc4)nc4[nH]ccc34)cn2)C1 (stereo not drawn) [Compound 2] |  | None |  | None | 1 nM | 167
2 | CCS(=O)(=O)N1CC(CC#N)(n2cc(-c3nc(Nc4ccc(C(=O)NCCCCNc5ccc(C6CCC(=O)NC6=O)cc5)cc4)nc4[nH]ccc34)cn2)C1 (stereo not drawn) [Compound 13] |  |  |  |  | > 5000 nM | 93
3 | CCS(=O)(=O)N1CC(CC#N)(n2cc(-c3nc(Nc4ccc(C(=O)NCCOCCOCCOc5ccc(C6CCC(=O)NC6=O)cc5)cc4)nc4[nH]ccc34)cn2)C1 (stereo not drawn) [Compound 12] |  |  |  |  | > 5000 nM | 116
4 | CCS(=O)(=O)N1CC(CC#N)(n2cc(-c3nc(Nc4ccc(C(=O)NCCCN5CC6CC5CN6c5ccc(C6CCC(=O)NC6=O)cc5)cc4)nc4[nH]ccc34)cn2)C1 (stereo not drawn) [Compound 48, 4-((4-(1-(3-(cyanomethyl)-1-(ethylsulfonyl)azetidin-3-yl)-1H-pyrazol-4-yl)-7H-pyrrolo[2,3-d]pyrimidin-2-yl)amino)-N-(3-(5-(4-(2,6-dioxopiperidin-3-yl)phenyl)-2,5-diazabicyclo[2.2.1]heptan-2-yl)propyl)benzamide] |  |  |  | 76 % remaining | 27.3 nM | 80
5 | CCS(=O)(=O)N1CC(CC#N)(n2cc(-c3nc(Nc4ccc(C(=O)NCCCCCNC(=O)COc5ccc(C6CCC(=O)NC6=O)cc5)cc4)nc4[nH]ccc34)cn2)C1 (stereo not drawn) [Compound 16] |  |  |  |  | > 5700 nM | 136
6 | CCS(=O)(=O)C1CC(CC#N)(n2cc(-c3nc(Nc4ccc(C(=O)N5CCN(c6ccc7c(c6)C(=O)N(C6CCC(=O)NC6=O)C7=O)CC5)cc4)nc4[nH]ccc34)cn2)C1 (stereo not drawn) [Compound 21] |  |  |  | 53 % remaining | 13.9 nM | 118
7 | CCS(=O)(=O)N1CC(CC#N)(n2cc(-c3nc(Nc4ccc(C(=O)N5CC6(C5)CN(c5ccc(C7CCC(=O)NC7=O)cc5)C6)cc4)nc4[nH]ccc34)cn2)C1 (stereo not drawn) [Compound 53, 2-(3-(4-(2-((4-(6-(4-(2,6-dioxopiperidin-3-yl)phenyl)-2,6-diazaspiro[3.3]heptane-2-carbonyl)phenyl)amino)-7H-pyrrolo[2,3-d]pyrimidin-4-yl)-1H-pyrazol-1-yl)-1-(ethylsulfonyl)azetidin-3-yl)acetonitrile] | 102% |  |  | 36 % remaining | 1.7 nM | 142
8 | CCS(=O)(=O)N1CC(CC#N)(n2cc(-c3nc(Nc4ccc(C(=O)NCCOCCOc5cccc(C6CCC(=O)NC6=O)c5)cc4)nc4[nH]ccc34)cn2)C1 (stereo not drawn) [Compound 9] |  |  |  |  | 873 nM | 132
9 | CCS(=O)(=O)N1CC(CC#N)(n2cc(-c3nc(Nc4ccc(C(=O)NCCCCNC(=O)COc5ccc(C6CCC(=O)NC6=O)cc5)cc4)nc4[nH]ccc34)cn2)C1 (stereo not drawn) [Compound 15] | 78% |  |  | 29 % remaining | > 5500 nM | 156
10 | CCS(=O)(=O)N1CC(CC#N)(n2cc(-c3nc(Nc4ccc(C(=O)NCCCN5CC6CCC5CN6c5ccc(C6CCC(=O)NC6=O)cc5)cc4)nc4[nH]ccc34)cn2)C1 (stereo not drawn) [Compound 54, 4-((4-(1-(3-(cyanomethyl)-1-(ethylsulfonyl)azetidin-3-yl)-1H-pyrazol-4-yl)-7H-pyrrolo[2,3-d]pyrimidin-2-yl)amino)-N-(3-(5-(4-(2,6-dioxopiperidin-3-yl)phenyl)-2,5-diazabicyclo[2.2.2]octan-2-yl)propyl)benzamide] | 125% |  |  | 62 % remaining | 6.3 nM | 67
11 | CCS(=O)(=O)N1CC(CC#N)(n2cc(-c3nc(Nc4ccc(C(=O)NCCCN5CCC6(CC5)CCN(c5ccc(C7CCC(=O)NC7=O)cc5)CC6)cc4)nc4[nH]ccc34)cn2)C1 (stereo not drawn) [Compound 51] |  |  |  | 67 % remaining | 226 nM | 105

Now from value to molecule, other results behind:

Row | remaining activity at 0.1 µM (GSPT1) | Neosubstrate Degradation (% remaining at 100 nM, 24 h) GSPT1 (GSPT1) | remaining activity at 0.1 µM (JAK3) | SMILES | Target Protein Degradation (% remaining at 100 nM, 24 h) JAK2 (JAK2) | EC50 (MHH-CALL-4 cells) | AUC (MHH-CALL-4 cells)
12 | 102% |  |  | CCS(=O)(=O)N1CC(CC#N)(n2cc(-c3nc(Nc4ccc(C(=O)NCCCN5CCC6(CCN(c7ccc(C8CCC(=O)NC8=O)cc7)CC6)C5)cc4)nc4[nH]ccc34)cn2)C1 (stereo not drawn) [Compound 56, 4-((4-(1-(3-(cyanomethyl)-1-(ethylsulfonyl)azetidin-3-yl)-1H-pyrazol-4-yl)-7H-pyrrolo[2,3-d]pyrimidin-2-yl)amino)-N-(3-(8-(4-(2,6-dioxopiperidin-3-yl)phenyl)-2,8-diazaspiro[4.5]decan-2-yl)propyl)benzamide] | 58 % remaining | 2650 nM | 172
13 | 116% |  | 51% | CCS(=O)(=O)N1CC(CC#N)(n2cc(-c3nc(Nc4ccc(C(=O)NCCN5CCC(c6ccc7c(c6)CN(C6CCC(=O)NC6=O)C7=O)CC5)cc4)nc4[nH]ccc34)cn2)C1 (stereo not drawn) [Compound 35, 4-((4-(1-(3-(cyanomethyl)-1-(ethylsulfonyl)azetidin-3-yl)-1H-pyrazol-4-yl)-7H-pyrrolo[2,3-d]pyrimidin-2-yl)amino)-N-(2-(4-(2-(2,6-dioxopiperidin-3-yl)-1-oxoisoindolin-5-yl)piperidin-1-yl)ethyl)benzamide] | 33 % remaining | 22 nM | 223
14 | 0% |  |  | CCCn1cc(-c2nc(Nc3ccc(C(=O)NCCN4CCN(c5cccc6c5C(=O)N(C5CCC(=O)NC5=O)C6=O)CC4)cc3)nc3[nH]ccc23)cn1 (stereo not drawn) [Compound 24] | 93 % remaining | 83.6 nM | 208
15 |  | Medium |  | CCCn1cc(-c2nc(Nc3ccc(C(=O)N4CCN(c5cccc6c5C(=O)N(C5CCC(=O)NC5=O)C6=O)CC4)cc3)nc3[nH]ccc23)cn1 (stereo not drawn) [Compound 26] | None | 297 nM | 217
16 |  | Medium |  | CCCn1cc(-c2nc(Nc3ccc(C(=O)NCCCN4CCN(c5cccc6c5C(=O)C(C5CCC(=O)NC5=O)C6=O)CC4)cc3)nc3[nH]ccc23)cn1 (stereo not drawn) [Compound 25] | None | 169 nM | 250
